Test results reported in patent US20120277257A1, “Methods of Treating Diseases, Pharmaceutical Compositions, and Pharmaceutical Dosage Forms” (MYREXIS, INC., priority 2009, published 2012).

Key:
[1] = tested on: MIA PaCa-2 pancreatic cancer; assay: MIA PaCa-2 pancreatic cancer xenograft; details: 100 mg/kg ip, weekly, Day 15
[2] = tested on: NCI-N87 Her2+ gastric cancer; assay: NCI-N87 (Her2+) gastric cancer xenograft in athymic nude mice; assay type: in vivo; details: 40 mg/kg oral, thrice weekly for three weeks, day 21
Method: The efficacy of Compound 1 was compared to that of SNX-5422 (Serenex, Pfizer, Inc.) on the growth of NCI-N87 (Her2+) human gastric cancer cells as a xenograft in athymic nude mice model. Animals were dosed with either 200 mg/kg of Compound 1 on days 1 through 21 or 40 mg/kg of SNX-5422 thrice weekly for three weeks. Tumor volumes and body weights were determined from Days 1 to 39.
Five million NCI-N87 cells were implanted subcutaneously in the right flank of female nude mice (Hsd:athymic nude-Foxn1^nu). When the median tumor volume was approximately 123 mm^3, mice were randomized into three cohorts of ten animals. One cohort was dosed orally with vehicle, one cohort was dosed orally with Compound 1 (200 mg/kg) formulated in vehicle, and one cohort was dosed orally with SNX-5422 (40 mg/kg) formulated in dimethylacetamide/polyethylene glycol 300. Vehicle and Compound 1 were administered on days 1-21 and SNX-5422 was administered thrice weekly on Days 1, 3, 5, 8, 10, 12, 15, 17 and 19. The mice were observed daily for mortality and signs of toxicity.
Xenografted mice bearing N-87 tumors (median volume ˜125 mm^3) were dosed orally with Compound 1 for three weeks with the dosing schedules indicated in FIG. 4.
Additionally, xenografted mice bearing N-87 tumors (median volume ˜115 mm^3) were dosed orally with Compound 1 for twenty-one days at 200 mg/kg, once daily or 100 mg/kg, twice-daily as indicated in FIG. 5. Tumor growth inhibition (TGI) was monitored up to Day 39.

[3] = tested on: A549 non-small cell lung cancer; assay: A549 non-small cell lung cancer xenograft; assay type: in vivo, mice; details: maximum tolerated dose, oral once daily for 21 days, Day 22

## O=c1[nH]cc(F)c(=O)[nH]1 [5-Fluorouracil, reference compound]
[1]
  TGI (tumor growth inhibition): 58%

## CC1(C)CC(=O)c2c(C(F)(F)F)nn(-c3ccc(C(N)=O)c(N[C@H]4CC[C@H](OC(=O)CN)CC4)c3)c2C1 [SNX-5422, reference compound]
[2]
  decrease in median tumor volume: 22%

## C#Cc1cccc(Nc2ncnc3cc(OCCOC)c(OCCOC)cc23)c1 [erlotinib]
[3]
  TGI (tumor growth inhibition): 88%
